Where a name gives a salt, the structure may show the parent alone. Read-outs that look alike come from different tables or passages of the source.
Experiments:
in vitro = details: PAMPA; for permeability level compared with metoprolol / permeation rate relative to the progesterone monomer: pH 6.8
Protocol: (§1) The present invention involves the following detection instruments: • Single-crystal X-ray diffractometer: Bruker P4, Mo target, \ω scan, 296.15K; • Fourier infrared spectrometer: PerkinElmer Frontier FT/IR Spectrometer, normal temperature, KBr pellets, wavelength of 4000 to 450 cm^−1; • Powder X-ray diffractometer: Rigaku D/max-25509 kw, CuKα radiation, graphite monochromator; • Differential scanning calorimetry analyzer: Mettler Toledo DSC 822e, heating rate of 10° C./min, nitrogen flow rate of 50 mL/min; • Dynamic vapour sorption analyzer: SMS DVS advantage, 25° C.; • Dissolution apparatus: Tianjin Tianda Tianfa Technology Co., Ltd. RC806D, stirring paddle method; • Drug permeation rate tester: Pion Inc μFlux™.
Since the pH of fasting intestinal fluid in a human body is 6.5 and the pH of blood is 7.4, in order to make the conditions under which the permeation rate was measured close to the environment of the human gastrointestinal tract, pH 6.8 phosphate buffer was selected as the medium in the experiment. 3 mg of progesterone monomers and cocrystals of progesterone equivalent to 3 mg of progesterone were accurately weighed, and respectively placed in a donor compartment that represents the gastrointestinal tract, and 20 ml of pH 6.8 phosphate buffer was accurately added. 20 ml of pH 7.4 ASB buffer was accurately added to a receptor compartment that represents blood. The two compartments were separated by a biomimetic membrane with an area of 1.54 cm^2. The biomimetic membrane was coated with 25 μl of simulated gastrointestinal liposomes for infiltration, which represents the cell membrane of the gastrointestinal tract. At the temperature of 37° C. and the stirring speed of 200 rpm, sampling was conducted for 4 h, with an interval of 60 s between each two sampling procedures. The drug concentration in the receptor compartment was measured with a fiber optic probe within the ultraviolet wavelength range of 250 to 350 nm. The artificial membrane permeation rate of the drug was calculated according to Formula 1 (J/Flux).
[formula] represents the rate of change of drug concentration in the receptor compartment per unit time (μg·mL^−1·min^−1); V is the volume of buffer in the receptor compartment (mL); A is the area of the biomimetic membrane (cm^2); and Ct is the initial concentration of the drug in the donor compartment (μg·mL^−1).
The level of drug permeability can be determined by comparing the permeability of the drug with that of metoprolol measured by the same method.

[1] = Determination of the dissolution rate (dissolution curves, stirring paddle method, HPLC); details: for time at which the highest concentration was reached / highest value of concentration of progesterone on dissolution curve: 37±0.5° C.; for highest value of concentration of progesterone on dissolution curve: 50 to 100 rpm
Protocol: as §1
The two dissolution media are water and pH 1.2 hydrochloric acid solution, respectively. […] The content of progesterone at the wavelength of 241 nm was measured by the HPLC method, and the dissolution amount was calculated by the external standard method. Dissolution curves with time as the abscissa and the concentration of progesterone as the ordinate were respectively plotted, as shown in FIGS. 5 and 6.

[2] = Determination of hygroscopicity by dynamic vapour sorption analysis; format: physicochemical; details: 25° C.
Protocol: The nitrogen flow rate was 200 ml/min, and the relative humidity, varied in a stepped manner by a change of 10%, increased from 20% to 80%, and then dropped to 0%.

[3] = system: Female immature white rabbits; assay: Pharmacodynamic experiment of cocrystals of progesterone: rabbit body weight and uterine index; format: in vivo; details: for Uterine index (weight of uterus / weight of rabbit): x ± s
Protocol: Female immature white rabbits were used and randomly divided into blank group, positive control group, low dose group, medium dose group and high dose group, with 10 rabbits in each group. The dose of progesterone that should be given to each rabbit is twice the clinical human dose of progesterone, and is calculated according to the rabbit's body weight. […] The intramuscular injections were performed for a consecutive 30 days. Weighing was performed on day 1 and day 30 respectively. A part of the uterine tissue 2 cm from the junction of the uterus and vagina in the direction of the ovary was cut and weighed. The uterine index was calculated by dividing the weight of the uterus by the weight of each rabbit.

[4] = pH 1.2 hydrochloric acid solution

Compound	Papp at 4 h, 150 µg/mL (in vitro) [×10⁻⁶ cm/s]	permeability level compared with metoprolol (in vitro)	time at which the highest concentration was reached [1, 4] [min]	highest value of concentration of progesterone on dissolution curve [1, 4] [µg/mL]	time at which the highest concentration was reached ([1]; water) [min]	highest value of concentration of progesterone on dissolution curve ([1]; water) [µg/mL]	effective permeability (Pe) (in vitro) [cm/s]	permeation rate (J, Flux) (in vitro) [μg·min^−1·cm^−2]	permeation rate relative to the progesterone monomer (in vitro) [times]	solubility relative to the progesterone monomer [1] [times]	solubility relative to the progesterone monomer ([1]; pH 1.2) [times]	further results
CC(=O)[C@H]1CC[C@H]2[C@@H]3CCC4=CC(=O)CC[C@]4(C)[C@H]3CC[C@]12C [progesterone, pregn-4-ene-3,20-dione]	1110	high permeability	120	7.87	120	7.84						permeation rate (J, Flux) (in vitro; 4 h, 150 µg/mL): 0.32 μg·min^−1·cm^−2; hygroscopicity ([2]; dynamic vapour sorption): non-hygroscopic; change in relative mass (dynamic vapour sorption) ([2]; relative humidity 20% to 80% then to 0% in 10% steps): less than 0.2%
CC(=O)[C@H]1CC[C@H]2[C@@H]3CCC4=CC(=O)CC[C@]4(C)[C@H]3CC[C@]12C.O=C(O)c1cccc([N+](=O)[O-])c1C(=O)O [progesterone-3-nitrophthalic acid cocrystal]		high permeability	30	10.4	90	9.90	0.00146	0.28	0.9	1.3	1.3	
progesterone-isophthalic acid cocrystal												Uterine index (weight of uterus / weight of rabbit) ([3]; 3.5 mg·kg^−1 intramuscular for 30 consecutive days, low dose group): 0.025 ± 0.009%; Uterine index (weight of uterus / weight of rabbit) ([3]; 7 mg·kg^−1 intramuscular for 30 consecutive days, medium dose group): 0.029 ± 0.009 %; Uterine index (weight of uterus / weight of rabbit) ([3]; 14 mg·kg^−1 intramuscular for 30 consecutive days (high dose group / positive control group)): 0.035 ± 0.008%; change of uterine index of rabbits as the dose increased ([3]; 3.5, 7 and 14 mg·kg^−1 intramuscular, 30 days): increasing trend; statistical difference in uterine index versus positive control group ([3]; high dose group, 14 mg·kg^−1): no significant difference; statistical difference in uterine index versus positive control group ([3]; low dose group, 3.5 mg·kg^−1): significant differences; statistical difference in uterine index versus positive control group ([3]; medium dose group, 7 mg·kg^−1): no significant difference
COCCc1ccc(OCC(O)CNC(C)C)cc1 (stereo not shown) [metoprolol tartrate, reference compound]	120											
CC(=O)[C@H]1CC[C@H]2[C@@H]3CCC4=CC(=O)CC[C@]4(C)[C@H]3CC[C@]12C.O=Cc1ccc(B(O)O)cc1 [progesterone-4-formylbenzeneboronic acid cocrystal]		high permeability	120	8.77	60	9.06	0.000887	0.62	1.9	1.2	1.1	

Reference: US11866459B2, “Cocrystal of progesterone and preparation method and use thereof” (NATIONAL INSTITUTES FOR FOOD AND DRUG CONTROL, priority 2020, dated 2024)
